Assay results: patent publication US11225675B2, “D-lactate dehydrogenase, engineered strain containing D-lactate dehydrogenase and construction method and use of engineered strain” (Shanghai Jiao Tong University, priority 2017, dated 2022)

Columns and labels:
[1] = target: T1, D-lactate dehydrogenases LdhTi (Thermodesulfatator indicus, UniProt F8A9V0); test: Enzymatic characteristic identification (substrate spectrum) of D-lactate dehydrogenase LdhTi, NADH/NAD at 340 nm; assay type: biochemical; details: for whether LdhTi catalyzes the substrate (in words) / Km / kcat: 50 mM phosphate buffer pH 7.0, 0.2 mM NADH or NAD+, 37° C.; for Km / kcat: substrate of purified LdhTi, “—” = enzyme has no activity for the substrate
Description: A reaction system is consisting of: 50 mM phosphate buffer solution (pH 7.0), 0.2 mM NADH or NAD^+ as coenzyme, a suitable amount of D-lactate dehydrogenases LdhTi and substrates with different concentrations, reacted at 37° C. An enzyme activity determination method is to determine oxidization of NADH or reduction of NAD at ultraviolet wavelength of 340 nm, wherein one enzyme activity unit is defined as the enzyme amount needed for oxidizing or reducing 1 μmoL NADH or NAD in one minute.

[2] = substrate: C[C@@H](O)C(=O)O; test: as above; assay type: biochemical, Thermodesulfatator indicus; details: other: substrate of purified LdhTi, 50 mM phosphate buffer pH 7.0, 0.2 mM NADH or NAD+, 37° C., “—” = enzyme has no activity for the substrate
[3] = substrate: CC(=O)C(=O)O; test: as above; assay type: biochemical, Thermodesulfatator indicus; details: other: substrate of purified LdhTi, 50 mM phosphate buffer pH 7.0, 0.2 mM NADH or NAD+, 37° C., “—” = enzyme has no activity for the substrate
[4] = substrate: O=C(O)C(=O)Cc1ccccc1; test: purified protein, by the assay type; details: other: substrate of purified LdhTi, 50 mM phosphate buffer pH 7.0, 0.2 mM NADH or NAD+, 37° C., “—” = enzyme has no activity for the substrate
[5] = target: T1, D-lactate dehydrogenases LdhTi; test: Determination of the optimal reaction temperature of D-lactate dehydrogenases LdhTi; assay type: biochemical; details: 20 mM pyruvic acid, 0.2 mM NADH, 20 mM phosphate buffer pH 7.0, 30° C. to 100° C., FIG. 4
Description: An enzyme activity determination method is to determine change in NADH at ultraviolet wavelength of 340 nm, and one enzyme activity unit is defined as the enzyme amount needed for oxidizing 1 μmoL of NADH in one minute. Conditions for determination of the optimal reaction temperature of D-lactate dehydrogenases were as follows: 20 mM pyruvic acid as a substrate, 0.2 mM NADH as a coenzyme and 20 mM phosphate buffer solution (pH 7.0) system are adopted; and enzyme activities from 30° C. to 100° C. were respectively determined, and experiments were repeated thrice. […] Relative enzyme activities in FIG. 4 are relative enzyme activities, which are obtained by: determining enzyme activities at different temperature conditions, and correspondingly converting the enzyme activity values at other temperature conditions on the basis that the highest value at 70° C. is 100%.

[6] = target: T1, D-lactate dehydrogenases LdhTi; test: Determination of the optimal reaction pH value of D-lactate dehydrogenases LdhTi; assay type: biochemical; details: 37° C., 20 mM pyruvic acid, 0.2 mM NADH, pH range 3.0-11.0, FIG. 3
Description: An enzyme activity determination method is to determine change in NADH at ultraviolet wavelength of 340 nm, and one enzyme activity unit is defined as the enzyme amount needed for oxidizing 1 μmoL of NADH in one minute. At 37° C., by using 20 mM pyruvic acid as a substrate and 0.2 mM NADH as a coenzyme, the change of enzyme activity of the D-lactate dehydrogenase within a pH range of 3.0-11.0 was determined. A buffer system is consisting of: 50 mM citric acid-sodium citrate buffer solution with pH of 3.0-7.0; 50 mM phosphate buffer solution with pH of 7.0-9.0; and 50 mM sodium carbonate-sodium hydrogen carbonate buffer solution with pH of 9.0-11.0. Experiments were repeated thrice. […] Relative enzyme activities in FIG. 3 are relative enzyme activities, which are obtained by: determining enzyme activities at different pH values, and correspondingly converting the enzyme activity values at other pH values on the basis that the highest value at pH 6.0 is 100%.

In the case of `CC(=O)C(=O)O` [Pyruvic Acid, pyruvic acid], the “whether LdhTi catalyzes the substrate (in words)” value [1] is reported as “can catalyze” and the “catalytic efficiency of LdhTi for the substrate (in words)” value ([1]; compared among the tested substrates) is reported as “highest catalytic efficiency”.

`O=CC(=O)O` [Glyoxylic Acid, glyoxylic acid] was tested, and the “whether LdhTi catalyzes the substrate (in words)” value [1] was “can catalyze”, the Km [1] was 1760 ± 80 µM and the kcat [1] was 2.297 ± 0.0517 s⁻¹.

With `O=C(O)C(=O)Cc1ccccc1` [Phenylpyruvic Acid, phenylpyruvic acid] the “whether LdhTi catalyzes the substrate (in words)” value [1] was “can catalyze”.

With `C[C@H](O)C(=O)O` [L-lactic Acid, L-lactic acid] the “whether LdhTi catalyzes the substrate (in words)” value [1] was “no activity”.

`O=C(O)C(O)CO` (centres unmarked) [Glyceric Acid, glyceric acid] was tested, and the “whether LdhTi catalyzes the substrate (in words)” value [1] was “no activity”.

With `O=C(O)CC(=O)C(=O)O` [Oxaloacetic Acid, oxaloacetic acid] the “whether LdhTi catalyzes the substrate (in words)” value [1] was “can catalyze”, the Km [1] was 1320 ± 50 µM and the kcat [1] was 4.473 ± 0.0983 s⁻¹.

For `C[C@@H](O)C(=O)O` [D-lactic Acid, D-lactic acid], the “whether LdhTi catalyzes the substrate (in words)” value [1] was “can catalyze”.

B1: D-lactate dehydrogenases LdhTi (Thermodesulfatator indicus DSM 15286) (protein)
chain: MKVIFFSMHPYEEEFLGPILPSDWDVEMTPDFLDETTVEKAKGAQVVSLFVSDKADGPVLEALHSYGVGLLALRSAGYDHIDIETAKRLGIKVVNVPAYSPHAIADHTLAIMLALIRRLHRAHDKVRLGDFDLDGLMGFDLNGKVAGVIGLGKIGRLVATRLKAFGCKVLGYDPYIQPEIVENVDLDTLITQADIISIHCPLTRENFHMFNEETFKRMKPGAILVNTARGGLIDTKALLEALKSGKLGGAALDVYEYERGLFFKNHQKEGIKDPYLAQLLGLANVVLTGHQAFLTREAVKNIEETTVENILEWQKNPQAKLKNEI
B1 gave a Km [2] of 5410 ± 280 µM, a kcat [2] of 0.105 ± 0.005 s⁻¹ and a kcat/Km [2] of 19.3 ± 0.5 M⁻¹ s⁻¹. It also gave a Km [3] of 50 ± 10 µM, a kcat [3] of 1.08 ± 0.0283 s⁻¹ and a kcat/Km [3] of 20700 ± 667 M⁻¹ s⁻¹. For the same molecule, the Km [4] was 4580 ± 240 µM, the kcat [4] was 0.295 s⁻¹ and the kcat/Km [4] was 64.3 M⁻¹ s⁻¹.

B2: LdhTi: D-lactate dehydrogenase from Thermodesulfatator indicus DSM 15286, amino acid sequence SEQ ID No. 1, expressed in E. coli and purified (protein)
chain: B1 chain
modifications: Thermodesulfatator indicus DSM 15286
With B2 the optimal reaction temperature [5] was 70 °C and the “optimal reaction pH value” [6] was 6.0.
